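Grown in 96-well plates, cells were treated for 48 hours with each compound at five concentrations. Insufficient inhibition: endpoint recorded as highest concentration tested. TGI: concentration producing complete growth inhibition.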
What was measured:
Assay in all cases: DTP human tumour cell line panel, 48 h
MOLT-4 leukemia = test system: MOLT-4 leukemia
HL-60(TB) leukemia = test system: HL-60(TB) leukemia
T-47D breast = test system: T-47D breast
IGROV1 ovarian = test system: IGROV1 ovarian
OVCAR-8 ovarian = test system: OVCAR-8 ovarian
KM12 colon = test system: KM12 colon
DU-145 prostate = test system: DU-145 prostate
HCT-15 colon = test system: HCT-15 colon
HOP-92 NSCLC = test system: HOP-92 NSCLC
A498 renal = test system: A498 renal
HCT-116 colon = test system: HCT-116 colon
MDA-MB-231 breast = test system: MDA-MB-231 breast
CCRF-CEM leukemia = test system: CCRF-CEM leukemia
NCI-H460 lung = test system: NCI-H460 lung
SNB-19 CNS = test system: SNB-19 CNS
SF-295 CNS = test system: SF-295 CNS
NCI-H23 lung = test system: NCI-H23 lung
SN12C renal = test system: SN12C renal
SF-539 CNS = test system: SF-539 CNS
SK-OV-3 ovarian = test system: SK-OV-3 ovarian
SK-MEL-5 melanoma = test system: SK-MEL-5 melanoma
OVCAR-5 ovarian = test system: OVCAR-5 ovarian
CAKI-1 renal = test system: CAKI-1 renal
NCI-H226 lung = test system: NCI-H226 lung
SF-268 CNS = test system: SF-268 CNS
UACC-62 melanoma = test system: UACC-62 melanoma
RXF 393 renal = test system: RXF 393 renal
786-0 renal = test system: 786-0 renal
A549 NSCLC = test system: A549 NSCLC
OVCAR-3 ovarian = test system: OVCAR-3 ovarian
SK-MEL-2 melanoma = test system: SK-MEL-2 melanoma
MALME-3M melanoma = test system: MALME-3M melanoma
M14 melanoma = test system: M14 melanoma
HS 578T breast = test system: HS 578T breast
SK-MEL-28 melanoma = test system: SK-MEL-28 melanoma
HCC-2998 colon = test system: HCC-2998 colon
OVCAR-4 ovarian = test system: OVCAR-4 ovarian
HT29 colon = test system: HT29 colon
UACC-257 melanoma = test system: UACC-257 melanoma
NCI-H522 lung = test system: NCI-H522 lung
EKVX NSCLC = test system: EKVX NSCLC
MDA-N = test system: MDA-N
MCF7 breast = test system: MCF7 breast
SNB-75 CNS = test system: SNB-75 CNS
ACHN renal = test system: ACHN renal
LOX IMVI melanoma = test system: LOX IMVI melanoma
U251 CNS = test system: U251 CNS
HOP-62 NSCLC = test system: HOP-62 NSCLC
PC-3 prostate = test system: PC-3 prostate
MDA-MB-435 = test system: MDA-MB-435
COLO 205 colon = test system: COLO 205 colon
UO-31 renal = test system: UO-31 renal
BT-549 breast = test system: BT-549 breast
K-562 leukemia = test system: K-562 leukemia
SW-620 colon = test system: SW-620 colon
TK-10 renal = test system: TK-10 renal
SR leukemia = test system: SR leukemia
RPMI-8226 leukemia = test system: RPMI-8226 leukemia
NCI/ADR-RES ovarian = test system: NCI/ADR-RES ovarian
DMS 273 small cell lung = test system: DMS 273 small cell lung
KM20L2 colon = test system: KM20L2 colon
DLD-1 colon = test system: DLD-1 colon
SNB-78 CNS = test system: SNB-78 CNS
DMS 114 small cell lung = test system: DMS 114 small cell lung
M19-MEL melanoma = test system: M19-MEL melanoma

For `C=C1C(=O)O[C@@H]2C[C@@]3(C)CCC[C@H](C)C3=C[C@H]12`, the TGI (MOLT-4 leukemia) was 4.8 µM, the TGI (HL-60(TB) leukemia) was 5.52 µM and the TGI (T-47D breast) was 9.36 µM. For the same compound, the TGI (IGROV1 ovarian) was 29.6 µM, the TGI (OVCAR-8 ovarian) was 19.5 µM and the TGI (KM12 colon) was 24.8 µM. The TGI (DU-145 prostate) was 24.3 µM, the TGI (HCT-15 colon) was 17.1 µM and the TGI (HOP-92 NSCLC) was 11.2 µM. It also gave a TGI (A498 renal) of 24.9 µM, a TGI (HCT-116 colon) of 16.2 µM and a TGI (MDA-MB-231 breast) of 27.3 µM. It also gave a TGI (CCRF-CEM leukemia) of 9.94 µM, a TGI (NCI-H460 lung) of 31.7 µM and a TGI (SNB-19 CNS) of 30.1 µM. It also gave a TGI (SF-295 CNS) of 34.5 µM, a TGI (NCI-H23 lung) of 17.5 µM and a TGI (SN12C renal) of 12.5 µM. The TGI (SF-539 CNS) was 22.5 µM, the TGI (SK-OV-3 ovarian) was 40.4 µM and the TGI (SK-MEL-5 melanoma) was 17.9 µM. For the same compound, the TGI (OVCAR-5 ovarian) was 31.4 µM, the TGI (CAKI-1 renal) was 17.3 µM and the TGI (NCI-H226 lung) was 29.5 µM. It also gave a TGI (SF-268 CNS) of 26.7 µM, a TGI (UACC-62 melanoma) of 19.8 µM and a TGI (RXF 393 renal) of 18.8 µM. The TGI (786-0 renal) was 12.7 µM, the TGI (A549 NSCLC) was 31 µM and the TGI (OVCAR-3 ovarian) was 19.5 µM. For the same compound, the TGI (SK-MEL-2 melanoma) was 14.7 µM, the TGI (MALME-3M melanoma) was 15.8 µM and the TGI (M14 melanoma) was 12.6 µM. It also gave a TGI (HS 578T breast) of 19.1 µM, a TGI (SK-MEL-28 melanoma) of 20.5 µM and a TGI (HCC-2998 colon) of 29.1 µM. It also gave a TGI (OVCAR-4 ovarian) of 17.6 µM, a TGI (HT29 colon) of 16.1 µM and a TGI (UACC-257 melanoma) of 20.1 µM. It also gave a TGI (NCI-H522 lung) of 11.1 µM, a TGI (EKVX NSCLC) of 28.2 µM and a TGI (MDA-N) of 16.6 µM. The TGI (MCF7 breast) was 17.2 µM, the TGI (SNB-75 CNS) was 13.4 µM and the TGI (ACHN renal) was 21.6 µM. It also gave a TGI (LOX IMVI melanoma) of 22.9 µM, a TGI (U251 CNS) of 21.5 µM and a TGI (HOP-62 NSCLC) of 24.7 µM. It also gave a TGI (PC-3 prostate) of 24.2 µM, a TGI (MDA-MB-435) of 17.2 µM and a TGI (COLO 205 colon) of 3.39 µM. It also gave a TGI (UO-31 renal) of 17.1 µM, a TGI (BT-549 breast) of 15.7 µM and a TGI (K-562 leukemia) of 31.2 µM. The TGI (SW-620 colon) was 12.3 µM, the TGI (TK-10 renal) was 9.35 µM and the TGI (SR leukemia) was 4.78 µM. It also gave a TGI (RPMI-8226 leukemia) of 6.21 µM and a TGI (NCI/ADR-RES ovarian) of 27.9 µM.

`C[n+]1c2ccccc2c(CNc2ccc(S(=O)(=O)N=C(N)N)cc2)c2ccccc21` showed a TGI (MOLT-4 leukemia) of 1.7 µM, a TGI (DMS 273 small cell lung) of 24.2 µM and a TGI (HL-60(TB) leukemia) of 7.47 µM. The TGI (IGROV1 ovarian) was 66.6 µM, the TGI (OVCAR-8 ovarian) was 55.4 µM and the TGI (KM12 colon) was 27.7 µM. The TGI (HCT-15 colon) was 32.3 µM, the TGI (HOP-92 NSCLC) was 54.3 µM and the TGI (A498 renal) was 86.2 µM. It also gave a TGI (HCT-116 colon) of 27.2 µM, a TGI (CCRF-CEM leukemia) of 7.16 µM and a TGI (NCI-H460 lung) of 15 µM. It also gave a TGI (SNB-19 CNS) of 31.6 µM, a TGI (SF-295 CNS) of 23.4 µM and a TGI (NCI-H23 lung) of 33.3 µM. For the same compound, the TGI (SN12C renal) was 27.8 µM, the TGI (SF-539 CNS) was 17 µM and the TGI (SK-OV-3 ovarian) was over 100 µM. It also gave a TGI (SK-MEL-5 melanoma) of 22.8 µM, a TGI (KM20L2 colon) of 59.6 µM and a TGI (OVCAR-5 ovarian) of over 100 µM. For the same compound, the TGI (CAKI-1 renal) was 19.9 µM, the TGI (NCI-H226 lung) was 10.9 µM and the TGI (SF-268 CNS) was over 100 µM. The TGI (UACC-62 melanoma) was 42.1 µM, the TGI (RXF 393 renal) was 34.1 µM and the TGI (786-0 renal) was 43.4 µM. The TGI (A549 NSCLC) was over 100 µM, the TGI (OVCAR-3 ovarian) was 48.7 µM and the TGI (SK-MEL-2 melanoma) was 59.5 µM. The TGI (MALME-3M melanoma) was 63.1 µM, the TGI (M14 melanoma) was 28 µM and the TGI (SK-MEL-28 melanoma) was 40.7 µM. For the same compound, the TGI (HCC-2998 colon) was 39.2 µM, the TGI (OVCAR-4 ovarian) was over 100 µM and the TGI (HT29 colon) was 49.8 µM. For the same compound, the TGI (UACC-257 melanoma) was 41.3 µM, the TGI (NCI-H522 lung) was 32.3 µM and the TGI (EKVX NSCLC) was 64.1 µM. For the same compound, the TGI (DLD-1 colon) was 65.5 µM, the TGI (SNB-75 CNS) was 39.9 µM and the TGI (ACHN renal) was over 100 µM. The TGI (LOX IMVI melanoma) was 20.2 µM, the TGI (SNB-78 CNS) was 78.1 µM and the TGI (HOP-62 NSCLC) was 40 µM. The TGI (DMS 114 small cell lung) was 20.8 µM, the TGI (M19-MEL melanoma) was 42 µM and the TGI (UO-31 renal) was 45.5 µM. The TGI (K-562 leukemia) was 52 µM, the TGI (SW-620 colon) was 56.8 µM and the TGI (TK-10 renal) was over 100 µM. For the same compound, the TGI (RPMI-8226 leukemia) was 23.5 µM.

From PubChem BioAssay (NCI)
